Patent publication US20250129069A1, “TRIAZOLO WRN INHIBITORS” (Nimbus Wadjet, Inc., priority 2023, published 2025)
Read-outs that look alike come from different tables or passages of the source.

Columns and labels:
[1] = biological target: human Werner helicase (WRN, amino acids 517-1235 with L1074F point mutation) (Homo sapiens (Human), UniProt Q14191, L1074F); assay: WRN (BV08) ADP-Glo assay; format: biochemical; conditions: human WRN (aa 517-1235, L1074F), read-out: ADP-Glo_hWRN_IC50
Summary of the method: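 ADP-Glo luminescence read after 60 min, 25 °C reaction of 0.15 nM WRN (517-1235, L1074F, Sf9-expressed, tag removed) with 0.1 nM DNA duplex and 5 μM ATP, following 15 min compound preincubation; 20 mM Bicine pH 7.5, 1% DMSO. IC50 from 3- or 4-parameter fit of % inhibition.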

[2] = tested on: p21 induction in HCT 116 cells; assay: p21 induction in cells (In-Cell Western, p21/GAPDH ratio); format: cell-based; conditions: 24 h compound incubation, read-out: p21_EC50
Summary of the method: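 EC50 values come from nonlinear fits of percent activation, defined by the 800/700 nm p21-to-GAPDH ratio scaled between DMSO (low) and internal WRN inhibitor (high) controls. In-Cell Western read after 24 h compound exposure of HCT 116 cells at 37° C. Duplicate 11-point series, 2-fold steps, usually starting at 10 μM.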

Sequence of human Werner helicase (WRN, amino acids 517-1235 with L1074F point mutation) (Q14191 other isoform, or with tags, fused parts or gaps L1074F (already in the parent)): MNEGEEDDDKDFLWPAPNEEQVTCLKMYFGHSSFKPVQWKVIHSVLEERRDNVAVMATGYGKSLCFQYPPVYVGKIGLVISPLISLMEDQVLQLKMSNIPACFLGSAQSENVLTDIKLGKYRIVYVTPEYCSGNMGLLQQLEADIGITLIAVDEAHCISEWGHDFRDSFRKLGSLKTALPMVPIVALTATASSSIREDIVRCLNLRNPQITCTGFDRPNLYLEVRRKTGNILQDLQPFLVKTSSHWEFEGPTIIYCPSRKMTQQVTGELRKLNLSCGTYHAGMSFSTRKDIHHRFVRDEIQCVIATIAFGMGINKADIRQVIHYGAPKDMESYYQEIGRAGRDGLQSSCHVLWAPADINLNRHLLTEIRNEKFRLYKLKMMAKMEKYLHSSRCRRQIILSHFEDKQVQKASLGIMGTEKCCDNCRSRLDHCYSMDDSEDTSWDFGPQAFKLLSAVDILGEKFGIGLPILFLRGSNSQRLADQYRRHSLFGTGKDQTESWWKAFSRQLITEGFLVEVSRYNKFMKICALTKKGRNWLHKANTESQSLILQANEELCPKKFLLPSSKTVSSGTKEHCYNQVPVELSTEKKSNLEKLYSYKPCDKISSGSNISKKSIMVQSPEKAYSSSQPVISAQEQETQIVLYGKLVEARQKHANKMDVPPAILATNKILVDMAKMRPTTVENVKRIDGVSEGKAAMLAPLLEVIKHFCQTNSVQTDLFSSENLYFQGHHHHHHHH

Row | IC50 [1] | EC50 ([2]; Homo sapiens) | EC50 [2] | SMILES
1 | 5 to 50 nM | ≤ 500 nM | – | CCc1c(N2CCN(C(=O)c3ncnc(C)c3O)[C@H]3CC[C@@H]32)c(=O)c2nn(-c3ccnc(OC)c3)nc2n1CC(=O)NC1CCC2(CCC2)C1 (stereo partly drawn) [Compound I-66, 2-{5-ethyl-6-[(1S,6S)-5-(5-hydroxy-6-methylpyrimidine-4-carbonyl)-2,5-diazabicyclo[4.2.0]octan-2-yl]-2-(2-methoxypyridin-4-yl)-7-oxo-2H,4H,7H-[1,2,3]triazolo[4,5-b]pyridin-4-yl}-N-{spiro[3.4]octan-6-yl}acetamide]
2 | ≤ 5 nM | ≤ 500 nM | – | CCc1c(N2CCN(C(=O)c3ncc4c(c3O)CCO4)CC2)c(=O)c2nn(-c3ccnc(OC)c3)nc2n1CC(=O)Nc1ccc(C(F)(F)F)cc1Cl [Compound I-152, N-[2-chloro-4-(trifluoromethyl)phenyl]-2-[5-ethyl-6-(4-{4-hydroxy-2H,3H-furo[2,3-c]pyridine-5-carbonyl}piperazin-1-yl)-2-(2-methoxypyridin-4-yl)-7-oxo-2H,4H,7H-[1,2,3]triazolo[4,5-b]pyridin-4-yl]acetamide]
3 | 5 to 50 nM | 500 to 2000 nM | – | CCc1c(N2CCN(C(=O)c3cc(N4CCN(C)CC4)ccc3OC)[C@H]3CC[C@@H]32)c(=O)c2nn(C3=CCOCC3)nc2n1CC(=O)NC12CC(C(C)C)(C1)C2 [Compound I-165, 2-[2-(3,6-dihydro-2H-pyran-4-yl)-5-ethyl-6-[(1S,6S)-5-[2-methoxy-5-(4-methylpiperazin-1-yl)benzoyl]-2,5-diazabicyclo[4.2.0]octan-2-yl]-7-oxo-2H,4H,7H-[1,2,3]triazolo[4,5-b]pyridin-4-yl]-N-[3-(propan-2-yl)bicyclo[1.1.1]pentan-1-yl]acetamide]
4 | 5 to 50 nM | ≤ 500 nM | – | CCc1c(N2CCN(C(=O)c3c(OC)ncc(C)c3O)[C@H]3CC[C@@H]32)c(=O)c2nn(-c3ccnc(OC)c3)nc2n1CC(=O)NC12CC(C(F)(F)F)(C1)C2 [Compound I-117, 2-{5-ethyl-6-[(1S,6S)-5-(4-hydroxy-2-methoxy-5-methylpyridine-3-carbonyl)-2,5-diazabicyclo[4.2.0]octan-2-yl]-2-(2-methoxypyridin-4-yl)-7-oxo-2H,4H,7H-[1,2,3]triazolo[4,5-b]pyridin-4-yl}-N-[3-(trifluoromethyl)bicyclo[1.1.1]pentan-1-yl]acetamide]
5 | 5 to 50 nM | 500 to 2000 nM | – | CCc1c(N2CCN(C(=O)c3cccc4c3OCC4)[C@H]3CC[C@@H]32)c(=O)c2nn(-c3ccnc(OC)c3)nc2n1CC(=O)Nc1ccc(C(F)(F)F)cc1Cl [Compound I-120, N-[2-chloro-4-(trifluoromethyl)phenyl]-2-{6-[(1S,6S)-5-(2,3-dihydro-1-benzofuran-7-carbonyl)-2,5-diazabicyclo[4.2.0]octan-2-yl]-5-ethyl-2-(2-methoxypyridin-4-yl)-7-oxo-2H,4H,7H-[1,2,3]triazolo[4,5-b]pyridin-4-yl}acetamide]
6 | 5 to 50 nM | ≤ 500 nM | – | CCc1c(N2CCN(C(=O)c3c(OC)ncc(C)c3O)[C@H]3CC[C@@H]32)c(=O)c2nn(-c3ccnc(C)c3)nc2n1CC(=O)Nc1ccc(C(F)(F)F)cc1Cl [Compound I-100, N-[2-chloro-4-(trifluoromethyl)phenyl]-2-{5-ethyl-6-[(1S,6S)-5-(4-hydroxy-2-methoxy-5-methylpyridine-3-carbonyl)-2,5-diazabicyclo[4.2.0]octan-2-yl]-2-(2-methylpyridin-4-yl)-7-oxo-2H,4H,7H-[1,2,3]triazolo[4,5-b]pyridin-4-yl}acetamide]
7 | 5 to 50 nM | ≤ 500 nM | – | CCc1c(N2CCN(C(=O)c3ncnc(C)c3O)[C@H]3CC[C@@H]32)c(=O)c2nn(-c3ccnc(OC)c3)nc2n1CC(=O)NC12CC(C3CC3)(C1)C2 [Compound I-10, N-(3-cyclopropylbicyclo[1.1.1]pentan-1-yl)-2-(5-ethyl-6-((1S,6S)-5-(5-hydroxy-6-methylpyrimidine-4-carbonyl)-2,5-diazabicyclo[4.2.0]octan-2-yl)-2-(2-methoxypyridin-4-yl)-7-oxo-2,7-dihydro-4H-[1,2,3]triazolo[4,5-b]pyridin-4-yl)acetamide]
8 | 5 to 50 nM | 500 to 2000 nM | – | CCc1c(C23CCN(C(=O)c4ncnc(C)c4O)CC2C3)c(=O)c2nn(-c3ccnc(OC)c3)nc2n1CC(=O)NC12CC(C(C)C)(C1)C2 [Compound I-42, rel-2-{5-ethyl-6-[(1R,6S)-3-(5-hydroxy-6-methylpyrimidine-4-carbonyl)-3-azabicyclo[4.1.0]heptan-6-yl]-2-(2-methoxypyridin-4-yl)-7-oxo-2H,4H,7H-[1,2,3]triazolo[4,5-b]pyridin-4-yl}-N-[3-(propan-2-yl)bicyclo[1.1.1]pentan-1-yl]acetamide]
9 | 5 to 50 nM | ≤ 500 nM | – | CCc1c(N2CCN(C(=O)c3ncnc(C)c3O)[C@H]3CC[C@@H]32)c(=O)c2nn(C3=CCOCC3)nc2n1CC(=O)Nc1ccc(C(F)F)cc1F [Compound I-154, N-[4-(difluoromethyl)-2-fluorophenyl]-2-[2-(3,6-dihydro-2H-pyran-4-yl)-5-ethyl-6-[(1S,6S)-5-(5-hydroxy-6-methylpyrimidine-4-carbonyl)-2,5-diazabicyclo[4.2.0]octan-2-yl]-7-oxo-2H,4H,7H-[1,2,3]triazolo[4,5-b]pyridin-4-yl]acetamide]
10 | 5 to 50 nM | – | ≤ 500 nM | CCc1c(N2CCN(C(=O)c3ncnc(C)c3O)[C@H]3CC[C@@H]32)c(=O)c2nn(-c3ccnc(OC)c3)nc2n1CC(=O)NC12CC(C(C)(F)F)(C1)C2 [Compound I-61, N-[3-(1,1-difluoroethyl)bicyclo[1.1.1]pentan-1-yl]-2-{5-ethyl-6-[(1S,6S)-5-(5-hydroxy-6-methylpyrimidine-4-carbonyl)-2,5-diazabicyclo[4.2.0]octan-2-yl]-2-(2-methoxypyridin-4-yl)-7-oxo-2H,4H,7H-[1,2,3]triazolo[4,5-b]pyridin-4-yl}acetamide]
11 | 5 to 50 nM | 500 to 2000 nM | – | CCc1c(N2CCN(C(=O)c3c(O)cncc3OC)CC2)c(=O)c2nn(-c3ccnc(OC)c3)nc2n1CC(=O)NC12CC(C(C)C)(C1)C2 [Compound I-37, 2-{5-ethyl-6-[4-(3-hydroxy-5-methoxypyridine-4-carbonyl)piperazin-1-yl]-2-(2-methoxypyridin-4-yl)-7-oxo-2H,4H,7H-[1,2,3]triazolo[4,5-b]pyridin-4-yl}-N-[3-(propan-2-yl)bicyclo[1.1.1]pentan-1-yl]acetamide]
12 | 5 to 50 nM | > 5000 nM | – | CCc1c(N2CCN(C(=O)c3c(OC)ncc(C)c3O)CC2)c(=O)c2nn(-c3ccnc(OC)c3)nc2n1CC(=O)NC1CC2(C1)CC(C)(C)C2 [Compound I-105, N-{6,6-dimethylspiro[3.3]heptan-2-yl}-2-{5-ethyl-6-[4-(4-hydroxy-2-methoxy-5-methylpyridine-3-carbonyl)piperazin-1-yl]-2-(2-methoxypyridin-4-yl)-7-oxo-2H,4H,7H-[1,2,3]triazolo[4,5-b]pyridin-4-yl}acetamide]
13 | 5 to 50 nM | – | ≤ 500 nM | CCc1c(N2CCN(C(=O)c3ncnc(C)c3O)[C@H]3CC[C@@H]32)c(=O)c2nn(-c3ccnc(OC)c3)nc2n1CC(=O)NC12CC(OC(F)(F)F)(C1)C2 [Compound I-40, 2-{5-ethyl-6-[(1S,6S)-5-(5-hydroxy-6-methylpyrimidine-4-carbonyl)-2,5-diazabicyclo[4.2.0]octan-2-yl]-2-(2-methoxypyridin-4-yl)-7-oxo-2H,4H,7H-[1,2,3]triazolo[4,5-b]pyridin-4-yl}-N-[3-(trifluoromethoxy)bicyclo[1.1.1]pentan-1-yl]acetamide]
14 | 5 to 50 nM | – | 500 to 2000 nM | CCc1c(N2CCN(C(=O)c3ncnc(C)c3O)CC2)c(=O)c2nn(-c3ccnc(OC)c3)nc2n1CC(=O)NC12CC(C(F)(F)F)(C1)C2 [Compound I-5, 2-(5-ethyl-6-(4-(5-hydroxy-6-methylpyrimidine-4-carbonyl)piperazin-1-yl)-2-(2-methoxypyridin-4-yl)-7-oxo-2,7-dihydro-4H-[1,2,3]triazolo[4,5-b]pyridin-4-yl)-N-(3-(trifluoromethyl)bicyclo[1.1.1]pentan-1-yl)acetamide]
15 | 5 to 50 nM | – | ≤ 500 nM | CCc1c(N2CCN(C(=O)c3c(OC)ncc(C)c3O)[C@H]3CC[C@@H]32)c(=O)c2nn(C3=CCOCC3)nc2n1CC(=O)NC12CC(C(C)C)(C1)C2 [Compound I-92, 2-[2-(3,6-dihydro-2H-pyran-4-yl)-5-ethyl-6-[(1S,6S)-5-(4-hydroxy-2-methoxy-5-methylpyridine-3-carbonyl)-2,5-diazabicyclo[4.2.0]octan-2-yl]-7-oxo-2H,4H,7H-[1,2,3]triazolo[4,5-b]pyridin-4-yl]-N-[3-(propan-2-yl)bicyclo[1.1.1]pentan-1-yl]acetamide]
16 | 5 to 50 nM | ≤ 500 nM | – | CCc1c(N2CCN(C(=O)c3c(Oc4cnn(C)c4)ncc(C)c3O)CC2)c(=O)c2nn(-c3ccnc(OC)c3)nc2n1CC(=O)NC12CC(C(C)C)(C1)C2 [Compound I-63, 2-[5-ethyl-6-(4-{4-hydroxy-5-methyl-2-[(1-methyl-1H-pyrazol-4-yl)oxy]pyridine-3-carbonyl}piperazin-1-yl)-2-(2-methoxypyridin-4-yl)-7-oxo-2H,4H,7H-[1,2,3]triazolo[4,5-b]pyridin-4-yl]-N-[3-(propan-2-yl)bicyclo[1.1.1]pentan-1-yl]acetamide]
